Converted amounts (≈) assume the structure as drawn.
Assays:
[1] = tested on: Mycobacterium tuberculosis; assay: Antimycobacterial activity against Mycobacterium tuberculosis H37Rv ATCC 27294 after 14 days by resazurin reduction microplate assay; type: functional; settings: H37Rv ATCC 27294, 336 h
[2] = Inhibition of MraY in Staphylococcus aureus by fluorescence assay
[3] = Inhibition of Campylobacter concisus phosphoglycosyl transferase Pg1C
[4] = Inhibition of Clostridium difficile phosphoglycosyl transferase; parameters: species or system Clostridioides difficile
[5] = Inhibition of Campylobacter jejuni phosphoglycosyl transferase Pg1D
[6] = tested on: Mycobacterium tuberculosis; assay: Antimycobacterial activity against Mycobacterium tuberculosis H37Rv; type: functional

Compound: C[C@@H]([C@H](NC(=O)[C@@H](NC(=O)N[C@@H](Cc1c[nH]c2ccccc12)C(=O)O)c1ccccc1)C(=O)NC[C@H]1C[C@@H](O)[C@H](n2ccc(=O)[nH]c2=O)O1)N(C)C(=O)CN
- MIC50 [1]: > 6.26 µM

Compound: CC[C@H](C)[C@H](NC(=O)N[C@@H](Cc1c[nH]c2ccccc12)C(=O)O)C(=O)N[C@H](C(=O)NC[C@H]1C[C@@H](O)[C@H](n2ccc(=O)[nH]c2=O)O1)[C@H](C)N(C)C(=O)CN
- MIC50 [1]: 0.93 µM (≈ 0.69 µg/mL)

Compound: C[C@@H]([C@H](NC(=O)[C@H](Cc1ccccc1)NC(=O)N[C@@H](Cc1c[nH]c2ccccc12)C(=O)O)C(=O)NC[C@H]1C[C@@H](O)[C@H](n2ccc(=O)[nH]c2=O)O1)N(C)C(=O)CN
- MIC50 [1]: 0.26 µM (≈ 0.202 µg/mL)

Compound: CC(C)[C@H](NC(=O)N[C@@H](Cc1c[nH]c2ccccc12)C(=O)O)C(=O)N[C@H](C(=O)N/C=C1/C[C@@H](O)[C@H](n2ccc(=O)[nH]c2=O)O1)[C@H](C)N(C)C(=O)[C@@H](N)Cc1cccc(O)c1
- MIC [1]: 9.5 µM (≈ 7.9 µg/mL)

Compound: CC(C)C[C@H](NC(=O)N[C@@H](Cc1c[nH]c2ccccc12)C(=O)O)C(=O)N[C@H](C(=O)NC[C@H]1C[C@@H](O)[C@H](n2ccc(=O)[nH]c2=O)O1)[C@H](C)N(C)C(=O)[C@H](C)N
- MIC50 [1]: 0.6 µM (≈ 0.453 µg/mL)

Compound: CC(C)C[C@H](NC(=O)N[C@@H](Cc1c[nH]c2ccccc12)C(=O)O)C(=O)N[C@H](C(=O)NC[C@H]1C[C@@H](O)[C@H](n2ccc(=O)[nH]c2=O)O1)[C@H](C)N(C)C(=O)[C@@H](N)Cc1ccccc1
- MIC50 [1]: 4.05 µM (≈ 3.37 µg/mL)

Compound: CC(C)C[C@H](NC(=O)[C@H](CCCCN)NC(=O)N[C@H](C(=O)O)C(C)C)C(=O)NCCCN[C@@H](C[C@H]1O[C@@H](n2ccc(=O)[nH]c2=O)[C@H](O)[C@@H]1O)C(=O)O
- IC50 [2]: 2.5 µM

Compound: CC(C)C[C@H](NC(=O)N[C@@H](Cc1c[nH]c2ccccc12)C(=O)O)C(=O)N[C@H](C(=O)NC[C@H]1C[C@@H](O)[C@H](n2ccc(=O)[nH]c2=O)O1)[C@H](C)N(C)C(=O)[C@@H](N)CC1CCCCC1
- MIC50 [1]: 1 µM (≈ 0.838 µg/mL)

Compound: CC(C)[C@H](NC(=O)N[C@@H](CCCCN)C(=O)N[C@@H](C)C(=O)NCCCN[C@@H](C[C@H]1O[C@@H](n2ccc(=O)[nH]c2=O)[C@H](O)[C@@H]1O)C(=O)O)C(=O)O
- IC50 [2]: 95 µM

Compound: COc1ccc2cc(-c3cn(CC(=O)N[C@@H](CCC(=O)O)C(=O)NC[C@H]4O[C@@H](n5ccc(=O)[nH]c5=O)[C@H](O)[C@@H]4O)nn3)ccc2c1
- IC50 [3]: 116 µM

Compound: CC(C)C[C@H](NC(=O)N[C@@H](Cc1c[nH]c2ccccc12)C(=O)O)C(=O)N[C@H](C(=O)NC[C@H]1C[C@@H](O)[C@H](n2ccc(=O)[nH]c2=O)O1)[C@H](C)N(C)C(=O)[C@@H](N)[C@@H](C)O
- MIC50 [1]: 1.35 µM (≈ 1.06 µg/mL)

Compound: O=c1ccn([C@@H]2O[C@H](CNc3c(NCc4cccc(F)c4)c(=O)c3=O)[C@@H](O)[C@H]2O)c(=O)[nH]1
- IC50 [4]: 174 µM

Compound: O=C(Cn1cc(-c2cccc(F)c2)nn1)NC[C@H]1O[C@@H](n2ccc(=O)[nH]c2=O)[C@H](O)[C@@H]1O
- IC50 [5]: 35 µM

Compound: C[C@@H]([C@H](NC(=O)[C@H](Cc1cccnc1)NC(=O)N[C@@H](Cc1c[nH]c2ccccc12)C(=O)O)C(=O)NC[C@H]1C[C@@H](O)[C@H](n2ccc(=O)[nH]c2=O)O1)N(C)C(=O)CN
- MIC50 [1]: 0.98 µM (≈ 0.761 µg/mL)

Compound: CCCCCCCCCCCCCCCCNC(=O)C1=CCN(C)[C@@H]([C@H](O[C@@H]2O[C@H](CN)[C@@H](O)[C@H]2O)[C@H]2O[C@@H](n3ccc(=O)[nH]c3=O)[C@H](O)[C@@H]2O)C(=O)N1C
- MIC [6]: 0.98 µM (≈ 0.765 µg/mL)

Compound: CCCCCCCOc1ccc(NC(=O)C2=CCN(C)[C@@H]([C@H](O[C@@H]3O[C@H](CN)[C@@H](O)[C@H]3O)[C@H]3O[C@@H](n4ccc(=O)[nH]c4=O)[C@H](O)[C@@H]3O)C(=O)N2C)cc1
- MIC [6]: 0.98 µM (≈ 0.732 µg/mL)

Compound: CCCCc1ccc(N)cc1
- MIC [6]: 2.27 µM (≈ 0.339 µg/mL)

Compound: CC(C)C[C@H](NC(=O)N[C@@H](Cc1c[nH]c2ccccc12)C(=O)O)C(=O)N[C@H](C(=O)NC[C@H]1C[C@@H](O)[C@H](n2ccc(=O)[nH]c2=O)O1)[C@H](C)N(C)C(=O)[C@@H](N)C1CCCCC1
- MIC50 [1]: 1.1 µM (≈ 0.906 µg/mL)

Compound: CCCCCCCCCCOC(=O)C1=CCN(C)[C@@H]([C@H](O[C@@H]2O[C@H](CN)[C@@H](O)[C@H]2O)[C@H]2O[C@@H](n3ccc(=O)[nH]c3=O)[C@H](O)[C@@H]2O)C(=O)N1C
- MIC [6]: 8.45 µM (≈ 5.9 µg/mL)

Compound: CC(C)C[C@H](NC(=O)[C@H](CCCCN)NC(=O)N[C@@H](C)C(=O)O)C(=O)NCCCN[C@@H](C[C@H]1O[C@@H](n2ccc(=O)[nH]c2=O)[C@H](O)[C@@H]1O)C(=O)O
- IC50 [2]: 21 µM

Compound: C[C@@H]([C@H](NC(=O)[C@H](CCCCN)NC(=O)N[C@@H](Cc1c[nH]c2ccccc12)C(=O)O)C(=O)NC[C@H]1C[C@@H](O)[C@H](n2ccc(=O)[nH]c2=O)O1)N(C)C(=O)CN
- MIC50 [1]: 0.7 µM (≈ 0.53 µg/mL)

Compound: Nc1ccc(C2CCCCC2)cc1
- MIC [6]: 2.27 µM (≈ 0.398 µg/mL)

Compound: CCCCCCCCCCCCCCCCCCCCNC(=O)C1=CCN(C)[C@@H]([C@H](O[C@@H]2O[C@H](CN)[C@@H](O)[C@H]2O)[C@H]2O[C@@H](n3ccc(=O)[nH]c3=O)[C@H](O)[C@@H]2O)C(=O)N1C
- MIC [6]: 0.98 µM (≈ 0.82 µg/mL)

— ChEMBL document CHEMBL4725382, “Uridine natural products: Challenging targets and inspiration for novel small molecule inhibitors” (Bioorg Med Chem, 2020)
